Laboratory results from US20240316020A1, “Novel Pyridine Compounds” (ICAGEN, LLC, priority 2021, published 2024).

Key:
[1] = target: human Kv7.2 (Homo sapiens (Human), UniProt O43526); test: SyncroPatch 384 electrophysiology, CHO cells stably expressing human Kv7.2; type: cell-based
Description: (§1) The potency of Kv7 potentiators was determined using the SyncroPatch 384 (Nanion) high throughput electrophysiology platform.
(§2) CHO cells stably expressing either human Kv7.2, Kv7.4 or Kv7.5/7.3 under a constitutive CMV promoter were used for these studies. Cells were maintained in F12 Hams+1 mM L-glutamine (Hyclone) supplemented with 10% FBS (Sigma), 0.3×NEAA (Non-essential Gamino-acids) and 400 ug/ml G418 at 37° C. in 5% CO2. Cells were cultured in T-225 flasks (Nunc) for 2-3 days to reach 85-95% confluence prior to electrophysiological recording.
(§3) Earle's balanced salt solution (in mM): 135 NaCl, 5.4 KCl, 5 Glucose, 2 CaCl2, 1 MgCl2, 5 HEPES, pH 7.4. Seal enhancer solution (in mM): 90 NaCl, 3 KCl, 35 CaCl2, 10 MgCl2, 10 HEPES, pH 7.4. Extracellular recording solution (in mM): 71 NaCl, 70 NMDG, 13 KCl, 5 Glucose, 2 CaCl2, 1 MgCl2, 10 HEPES, pH 7.4. Intracellular recording solution (in mM): 130 KF, 20 KCl, 4 EGTA, 10 HEPES, 2 EDTA, 0.01 Escin, pH 7.2.
(§4) Cells were harvested for electrophysiological recording upon reaching appropriate confluence. Cells were first washed in DPBS (Hyclone, Cat #SH30028.03) and then 2 ml of Accutase (MP Biomedicals #1000449) was added at 28° C. until ˜90% of cells were suspended. F12 HAM's media+1 mM L-glutamine (Hyclone, SH30026.02) was then added to the flask to dilute the accutase. Cells were then triturated until a single cell suspension was achieved, a cell count was performed, and cells were centrifuged for 2 min. at 1,000 rpm. Media was then aspirated, and cells were resuspended in Earle's balanced salt solution to a concentration of 0.75×10^6 cells/ml and allowed to recover for 25 min at 10° C.
(§5) At the beginning of each assay, 20 μl of cell suspension was dispensed into each well of a multi-hole 384-well SyncroPatch chip by the onboard pipettor. Cell sealing was initiated, and seal enhancer solution was added to facilitate seal formation. Upon completion of sealing, cells were washed 3 times with extracellular recording solution and the assay voltage protocol was started. Human Kv7.2, Kv7.4 or Kv7.5/7.3 channels were evaluated using a voltage protocol in which cells were voltage-clamped at a holding potential of −60 mV. Potassium currents were continuously activated with a series of three voltage steps to −30 mV for 3 seconds, 40 mV for 1 second and −90 mV for 4 seconds with 12 seconds between successive voltage sweeps. Potassium currents were measured from the −90 mV repolarizing step. Baseline current was assessed for 3.5 minutes prior to the addition of 5.6 μM zinc pyrithione (1 μM for Kv7.4). Kv7.2, Kv7.4 or Kv7.5/7.3 current in the presence of zinc pyrithione was acquired over five minutes to allow channels to reach steady state activity prior to addition of test agents. Channel activity was monitored for three minutes preceding the addition of 30 μM ML-213 (3 minutes) to achieve maximum activation.
(§6) Data were collected on the SyncroPatch platform using PatchControl software (Nanion) and processed and analyzed using DataControl Software (Nanion). Percent activation was calculated from potassium current as follows: The average current for the 5 sweeps in the presence of zinc pyrithione immediately preceding test agent addition was taken as the ‘control’ data. Likewise, the average potassium current in the presence of test agents 5 sweeps immediately preceding addition of 30 μM ML-213 was determined for ‘drug’ data. The average potassium current 5 sweeps immediately prior to addition of 150 mM TEA+10 μM XE-991 was determined for ‘max activation’ data while average currents from 5 sweeps immediately following addition of TEA was determined for ‘max inhibition’ data. Percent activation for each of the 384-wells of a sealchip was calculated as ((‘drug’−‘max inhibition’)/(‘max activation’−‘max inhibition’))*100 with Pipeline Pilot (Accelrys). […]

[2] = Human liver microsomal clearance; type: in vitro ADME; conditions: both sexes, liver microsomes, Table B, 0.5 μM compound, 0.25 mg/mL microsomes, NADPH, 37° C., read-out: Human liver microsomal intrinsic clearance CLint
Description: Pooled mixed gender human liver microsomes were purchased from BioIVT at a concentration of 20 mg protein/mL and stored at −80° C. Incubations were conducted in V-bottomed 350 μL polypropylene 96-well plates. Compounds were diluted in phosphate buffer (final concentrations 0.5 μM compound, 0.5% DMSO) and mixed with diluted liver microsomes (fc 0.25 mg/mL). This mixture was aliquoted onto the assay plate (six wells per compound) and pre-warmed at 37° C. for ten minutes. Addition of NADPH (fc 0.5 mM, final incubation volume 100 μL) to each well started the time course. Reactions were stopped at 0.5, 3, 5, 10, 20 & 30 minutes by addition of 150 μL acetonitrile containing internal standard (IS; 0.125 μg/mL daidzein) and stopped samples were removed to a clean polypropylene plate. At the end of the assay the plate was refrigerated for an hour and then centrifuged at 3000 rpm for 10 minutes at 4° C. A sample of the supernatant was removed to a fresh plate and diluted 10-fold with 50:50 acetonitrile:water, then heat sealed. Analysis was by liquid chromatography coupled with tandem mass spectrometry (LC-MS/MS) for analyte and IS levels. Ratios of the analyte and IS peak areas were generated for results calculation (IS ratio). Dextromethorphan and verapamil were included in each experiment as controls for high clearance compounds. IS ratio data were converted into natural log values which were plotted against time and a linear regression fit applied. The slope of the line was returned and converted into the elimination constant (kel) by multiplying by −1. The elimination constant was used to calculate the in vitro CLint: in vitro CLint (μL/min/mg protein) is kel* (1000/protein conc in mg/mL).

[3] = target: human Kv7.5/7.3 (Homo sapiens (Human), UniProt O43525+Q9NR82); test: SyncroPatch 384 electrophysiology, CHO cells stably expressing human Kv7.5/7.3; type: cell-based; conditions: Table A; for Kv7.5/7.3/Kv7.2 selectivity ratio: Kv7.5/7.3 EC50 over Kv7.2 EC50
human Kv7.5/7.3, sequence (Q9NR82 whole entry): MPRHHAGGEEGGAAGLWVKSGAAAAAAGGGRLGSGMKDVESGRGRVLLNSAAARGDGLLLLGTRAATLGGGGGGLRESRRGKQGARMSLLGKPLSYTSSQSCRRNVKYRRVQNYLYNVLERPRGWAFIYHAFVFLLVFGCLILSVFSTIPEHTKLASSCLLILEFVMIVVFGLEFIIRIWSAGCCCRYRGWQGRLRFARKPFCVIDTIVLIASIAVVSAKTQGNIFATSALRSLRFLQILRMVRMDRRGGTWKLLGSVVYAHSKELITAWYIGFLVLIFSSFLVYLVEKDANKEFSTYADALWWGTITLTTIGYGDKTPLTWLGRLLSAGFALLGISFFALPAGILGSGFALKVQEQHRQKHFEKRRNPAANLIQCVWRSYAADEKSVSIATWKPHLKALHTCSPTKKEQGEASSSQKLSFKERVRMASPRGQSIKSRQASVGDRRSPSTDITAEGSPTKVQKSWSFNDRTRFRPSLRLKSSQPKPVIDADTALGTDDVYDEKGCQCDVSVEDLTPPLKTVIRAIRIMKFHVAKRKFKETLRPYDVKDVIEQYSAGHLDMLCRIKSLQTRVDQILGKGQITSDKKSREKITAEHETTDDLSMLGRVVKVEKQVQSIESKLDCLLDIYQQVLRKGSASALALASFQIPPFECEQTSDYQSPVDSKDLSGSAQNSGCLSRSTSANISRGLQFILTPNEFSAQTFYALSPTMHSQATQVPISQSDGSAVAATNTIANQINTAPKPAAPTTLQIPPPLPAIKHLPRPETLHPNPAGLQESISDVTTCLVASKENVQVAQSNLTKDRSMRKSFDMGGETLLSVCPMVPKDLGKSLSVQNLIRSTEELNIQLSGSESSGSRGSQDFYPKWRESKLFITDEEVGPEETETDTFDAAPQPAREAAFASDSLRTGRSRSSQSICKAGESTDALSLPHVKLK
human Kv7.5/7.3, sequence (O43525 whole entry): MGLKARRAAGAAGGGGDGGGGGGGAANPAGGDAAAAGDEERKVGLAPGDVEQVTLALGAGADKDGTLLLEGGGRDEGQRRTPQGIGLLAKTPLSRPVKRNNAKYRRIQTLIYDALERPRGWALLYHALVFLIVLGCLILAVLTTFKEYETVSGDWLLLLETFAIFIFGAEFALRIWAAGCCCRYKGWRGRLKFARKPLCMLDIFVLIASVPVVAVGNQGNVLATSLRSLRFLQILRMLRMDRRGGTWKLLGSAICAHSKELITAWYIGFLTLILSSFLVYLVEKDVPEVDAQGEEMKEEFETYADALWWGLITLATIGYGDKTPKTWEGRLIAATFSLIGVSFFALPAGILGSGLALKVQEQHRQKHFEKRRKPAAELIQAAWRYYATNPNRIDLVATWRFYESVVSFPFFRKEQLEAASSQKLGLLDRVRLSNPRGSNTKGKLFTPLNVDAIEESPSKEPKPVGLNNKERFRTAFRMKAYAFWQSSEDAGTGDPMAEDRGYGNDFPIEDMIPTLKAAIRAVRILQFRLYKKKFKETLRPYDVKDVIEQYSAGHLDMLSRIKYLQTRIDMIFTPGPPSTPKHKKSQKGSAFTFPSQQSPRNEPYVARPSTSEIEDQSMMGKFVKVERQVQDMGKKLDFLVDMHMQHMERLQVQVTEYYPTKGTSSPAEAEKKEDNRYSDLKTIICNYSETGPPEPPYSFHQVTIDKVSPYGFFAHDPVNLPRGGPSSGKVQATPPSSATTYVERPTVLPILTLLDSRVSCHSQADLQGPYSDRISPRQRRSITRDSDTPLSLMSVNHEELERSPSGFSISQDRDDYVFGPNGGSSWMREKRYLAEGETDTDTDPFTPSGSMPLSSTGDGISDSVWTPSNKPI
Description: as §1, §2, §3, §4, §5, §6

[4] = Table 1, CHO cells, potassium current at -90 mV step, in presence of zinc pyrithione

human Kv7.2, sequence (O43526 whole entry): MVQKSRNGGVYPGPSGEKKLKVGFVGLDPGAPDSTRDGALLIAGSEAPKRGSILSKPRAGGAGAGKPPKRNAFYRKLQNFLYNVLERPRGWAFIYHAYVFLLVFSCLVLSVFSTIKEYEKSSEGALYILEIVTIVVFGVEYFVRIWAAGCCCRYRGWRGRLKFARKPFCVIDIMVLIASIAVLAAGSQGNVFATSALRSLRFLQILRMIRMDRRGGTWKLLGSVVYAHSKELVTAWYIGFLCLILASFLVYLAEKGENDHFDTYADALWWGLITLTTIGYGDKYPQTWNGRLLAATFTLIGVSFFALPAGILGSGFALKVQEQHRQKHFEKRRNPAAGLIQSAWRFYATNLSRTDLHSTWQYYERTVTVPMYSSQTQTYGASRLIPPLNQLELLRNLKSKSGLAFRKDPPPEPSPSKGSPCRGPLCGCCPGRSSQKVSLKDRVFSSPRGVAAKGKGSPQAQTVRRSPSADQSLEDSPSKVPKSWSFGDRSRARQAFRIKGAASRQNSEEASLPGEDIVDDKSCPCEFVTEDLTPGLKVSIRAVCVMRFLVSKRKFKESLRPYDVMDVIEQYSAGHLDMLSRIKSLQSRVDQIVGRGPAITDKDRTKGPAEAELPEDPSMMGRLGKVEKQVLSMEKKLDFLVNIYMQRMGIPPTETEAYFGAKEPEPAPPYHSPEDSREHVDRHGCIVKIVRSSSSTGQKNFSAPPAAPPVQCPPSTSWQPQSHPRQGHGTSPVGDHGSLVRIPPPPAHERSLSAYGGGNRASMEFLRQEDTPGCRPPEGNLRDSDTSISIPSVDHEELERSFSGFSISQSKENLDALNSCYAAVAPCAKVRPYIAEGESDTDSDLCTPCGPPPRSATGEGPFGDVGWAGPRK

SMILES	EC50 [1, 4] [nM]	microsomal CLint at 0.5 μM [2] [µL/min/mg]	EC50 ([1]; Table A) [nM]	EC50 [3] [nM]	Kv7.5/7.3/Kv7.2 selectivity ratio [3]
O=C(NCc1ccnc(-n2cccn2)c1)NC1CCOC2(CCCC2)C1 (centres unmarked) [Example 2, 1-(6-oxaspiro[4.5]decan-9-yl)-3-[(2-pyrazol-1-ylpyridin-4-yl)methyl]urea]	8490	–	–	–	–
O=C(NCc1ccnc(OC(F)F)c1)NC1COC2(CCCC2)C1 (centres unmarked) [Example 3, 1-[[2-(difluoromethoxy)pyridin-4-yl]methyl]-3-(1-oxaspiro[4.4]nonan-3-yl)urea]	500	–	–	–	–
O=C(NCc1ccnc(OC(F)F)c1)NC1(CO)CC2(CCC2)C1 [Example 18, 1-[[2-(difluoromethoxy)pyridin-4-yl]methyl]-3-[2-(hydroxymethyl)spiro[3.3]heptan-2-yl]urea]	410	–	–	–	–
O=C(NCc1ccnc(OC(F)F)c1)NC1COC2(CCCCC2)C1 (centres unmarked) [Example 30, 1-[[2-(difluoromethoxy)pyridin-4-yl]methyl]-3-(1-oxaspiro[4.5]decan-3-yl)urea]	450	–	–	–	–
O=C(NCc1ccnc(OC(F)F)c1)NC1CC2(CC(F)C2)C1 (centres unmarked) [Example 16, 1-[[2-(difluoromethoxy)pyridin-4-yl]methyl]-3-(2-fluorospiro[3.3]heptan-6-yl)urea]	150	10.7	–	–	–
O=C(NCc1ccnc(OCC(F)CF)c1)NC1CC2(CCC2)C1 (centres unmarked) [Example 29, 1-[[2-(2,3-difluoropropoxy)pyridin-4-yl]methyl]-3-spiro[3.3]heptan-2-ylurea]	100	–	–	–	–
O=C(NCc1ccnc(OCC2CC2)c1)NC1CC2(CCC2)C1 [Example 7, 1-[[2-(cyclopropylmethoxy)pyridin-4-yl]methyl]-3-spiro[3.3]heptan-2-ylurea]	50	–	–	–	–
CC(F)(F)c1cc(CNC(=O)NC2CC3(CCC3)C2)ccn1 [Example 9, 1-[[2-(1,1-difluoroethyl)pyridin-4-yl]methyl]-3-spiro[3.3]heptan-2-ylurea]	190	17.6	–	–	–
O=C(NCc1ccnc(OCC(F)(F)F)c1)NC1CC2(CC2)C1 [Example 12, 1-spiro[2.3]hexan-5-yl-3-[[2-(2,2,2-trifluoroethoxy)pyridin-4-yl]methyl]urea]	170	15.2	–	–	–
CC(F)(F)COc1cc(CNC(=O)NC2CC3(CCC3)C2)ccn1 [Example 5, 1-[[2-(2,2-difluoropropoxy)pyridin-4-yl]methyl]-3-spiro[3.3]heptan-2-ylurea]	20	–	–	–	–
O=C(NC1CC2(CCC2)C1)NC(CO)c1ccnc(OCC(F)(F)F)c1 (centres unmarked) [Example 13, 1-[2-hydroxy-1-[2-(2,2,2-trifluoroethoxy)pyridin-4-yl]ethyl]-3-spiro[3.3]heptan-2-ylurea]	70	–	–	–	–
CC(F)COc1cc(CNC(=O)NC2CC3(CCC3)C2)ccn1 (centres unmarked) [Example 6, 1-[[2-(2-fluoropropoxy)pyridin-4-yl]methyl]-3-spiro[3.3]heptan-2-ylurea]	60	–	–	–	–
O=C(NCc1ccnc(OC(F)F)c1)NC1COC12CCCCC2 (centres unmarked) [Example 20, 1-[[2-(difluoromethoxy)pyridin-4-yl]methyl]-3-(1-oxaspiro[3.5]nonan-3-yl)urea]	8430	–	–	–	–
O=C(NCc1ccnc(C(F)(F)F)c1)NC1CC2(CCC2)C1 [Example 10]	190	–	–	–	–

Further lines, results first:

EC50 [1, 4] [nM]	microsomal CLint at 0.5 μM [2] [µL/min/mg]	EC50 ([1]; Table A) [nM]	EC50 [3] [nM]	Kv7.5/7.3/Kv7.2 selectivity ratio [3]	SMILES
1440	10.6	–	–	–	O=C(NCc1ccnc(OC(F)F)c1)NC1COC2(CCC2)C1 (centres unmarked) [Example 22, 1-[[2-(difluoromethoxy)pyridin-4-yl]methyl]-3-(5-oxaspiro[3.4]octan-7-yl)urea]
3100	11.3	–	–	–	O=C(NCc1ccnc(OC(F)F)c1)NC1CC2(C1)CC2(F)F (centres unmarked) [Example 15, 1-[[2-(difluoromethoxy)pyridin-4-yl]methyl]-3-(2,2-difluorospiro[2.3]hexan-5-yl)urea]
340	–	340	> 30000	>89	O=C(NCc1ccnc(OC(F)F)c1)NC1C(F)(F)C12CCC2 (centres unmarked) [Example 24, 1-[[2-(difluoromethoxy)pyridin-4-yl]methyl]-3-(2,2-difluorospiro[2.3]hexan-1-yl)urea]
20	–	–	–	–	O=C(NCc1ccnc(OC(F)F)c1)NC1CCC2(CCC2)C1 (centres unmarked) [Example 11, 1-[[2-(difluoromethoxy)pyridin-4-yl]methyl]-3-spiro[3.4]octan-7-ylurea]
20	–	–	–	–	O=C(NCc1ccnc(OC(F)F)c1)NC1CC2(CCC2)C1 [Example 4, 1-[[2-(difluoromethoxy)pyridin-4-yl]methyl]-3-spiro[3.3]heptan-2-ylurea]
350	–	350	> 30000	>86	O=C(NCc1ccnc(OC(F)F)c1)NC1CCC2(C1)CC2(F)F (centres unmarked) [Example 19, 1-[[2-(difluoromethoxy)pyridin-4-yl]methyl]-3-(2,2-difluorospiro[2.4]heptan-6-yl)urea]
440	11.5	–	–	–	O=C(NCc1ccnc(OC(F)F)c1)N[C@H]1CC2(CCC2)[C@H]1O (racemic) [Example 26, 1-[[2-(difluoromethoxy)pyridin-4-yl]methyl]-3-[rac-(2R,3S)-3-hydroxyspiro[3.3]heptant-2-yl]urea]
550	–	–	–	–	O=C(NCc1ccnc(OC(F)F)c1)NC1CCC2(CCC2)OC1 (centres unmarked) [Example 32, 1-[[2-(difluoromethoxy)pyridin-4-yl]methyl]-3-(5-oxaspiro[3.5]nonan-7-yl)urea]
1940	–	1940	> 30000	>15	O=C(NCc1ccnc(OC(F)F)c1)NC1CC12CCC2 (centres unmarked) [Example 23, 1-[[2-(difluoromethoxy)pyridin-4-yl]methyl]-3-spiro[2.3]hexan-2-ylurea]
500	–	500	> 30000	>60	O=C(NCc1ccnc(OC(F)F)c1)N[C@@H]1CC2(CCC2)[C@@H]1O [Example 28, 1-[[2-(difluoromethoxy)pyridin-4-yl]methyl]-3-[(2R,3S)-3-hydroxyspiro[3.3]heptan-2-yl]urea]
60	5.2	–	–	–	O=C(NCc1ccnc(OC(F)F)c1)NC1CC2(CC2)C1 [Example 8, 1-[[2-(difluoromethoxy)pyridin-4-yl]methyl]-3-spiro[2.3]hexan-5-ylurea]
